pIC50: −log10 of the molar value.

Common to all, as to assay type: functional, cell-based
One assay concerns HepG2. The assay can be described thus: Cytotoxicity against human HepG2 cells assessed as reduction in cell viability by MTT assay.
The next assay relates to HeLa. Nature of the assay: Cytotoxicity against human HeLa cells assessed as reduction in cell viability by MTT assay. (In general: Formazan colour is commonly taken as a measure of viable cells.)
A further assay deals with A549. Nature of the assay: Cytotoxicity against human A549 cells assessed as reduction in cell viability by MTT assay.

As usually defined, the pIC50 is −log10 of the IC50, conventionally taken in molar units. On to `C=C[C@]1(O)CC(N)=C([C@@H](C)c2c(O)cc(C)oc2=O)C1=O`, for which the results for the negative logarithm of the IC50 (pIC50) in the assay with HepG2, in the assay with HeLa and in the assay on A549 were 4.51, 4.47 and 4.77, respectively.

With `COc1cc([C@@H]2c3cc4c(cc3[C@@H](O[C@@H]3O[C@@H]5CO[C@@H](C)O[C@H]5[C@H](O)[C@H]3O)[C@H]3COC(=O)[C@H]23)OCO4)cc(OC)c1O` [ETOPOSIDE], the pIC50 was 4.79 with HepG2, 4.82 with HeLa and 4.78 in the assay on A549.

Values taken from ChEMBL document CHEMBL4190204, “Trichoderpyrone, a Unique Polyketide Hybrid with a Cyclopentenone-Pyrone Skeleton from the Plant Endophytic Fungus Trichoderma gamsii” (J Nat Prod, 2017).
